Measured values from the supplement of paper PMC10627819.

Assays:
Test in all cases: fitness (endpoint OD595 vs no drug) (fraction); higher = more growth
S. aureus DSM 20231 = test system: S. aureus DSM 20231
In short: (§1)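 Background-subtracted growth curves were the basis for fitness, taken as the optical density at entry into stationary phase over the robust mean of no-drug control wells. A cap of 1 was applied. The curves came from OD595 readings every 30 min for 14 h at 37 °C, in 384-well plates seeded at OD595 0.01 with 30 µl, or 55 µl for S. pneumoniae.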

S. aureus Newman = test system: S. aureus Newman
In short: as §1

B. subtilis 168 = test system: B. subtilis 168
In short: as §1

N[C@@H]1CONC1=O [Cycloserine D] + CCN(CC)CCOC(=O)c1ccc(N)cc1 [Procaine]
fitness
Conditions | first compound 0.125 µg/mL | first compound 0.25 µg/mL | first compound 0.375 µg/mL | first compound 0.5 µg/mL | first compound 0.75 µg/mL | first compound 1.5 µg/mL
B. subtilis 168, partner 85.5 µg/mL | 0.95 | 0.899 | – | 0.921 | – | –
B. subtilis 168, partner 171 µg/mL | 0.908 | 0.851 | – | 0.894 | – | –
B. subtilis 168, partner 342 µg/mL | 0.925 | 0.874 | – | 0.907 | – | –
S. aureus DSM 20231, partner 85.5 µg/mL | – | – | 0.979 | – | 0.982 | 0.981
S. aureus DSM 20231, partner 171 µg/mL | – | – | 0.996 | – | 0.998 | ≥ 1
S. aureus DSM 20231, partner 342 µg/mL | – | – | ≥ 1 | – | 0.966 | ≥ 1
S. aureus Newman, partner 85.5 µg/mL | – | – | ≥ 1 | – | ≥ 1 | ≥ 1
S. aureus Newman, partner 171 µg/mL | – | – | 0.993 | – | ≥ 1 | ≥ 1
S. aureus Newman, partner 342 µg/mL | – | – | ≥ 1 | – | ≥ 1 | ≥ 1

N[C@@H]1CONC1=O [Cycloserine D] + CN1C2=CC=CC=C2N=C3C1=CC=CC3=O [Pyocyanin]
fitness
Conditions | first compound 0.125 µg/mL | first compound 0.25 µg/mL | first compound 0.375 µg/mL | first compound 0.5 µg/mL | first compound 0.75 µg/mL | first compound 1.5 µg/mL
B. subtilis 168, partner 1.25 µg/mL | 0.878 | 0.871 | – | 0.877 | – | –
B. subtilis 168, partner 2.5 µg/mL | 0.833 | 0.781 | – | 0.828 | – | –
B. subtilis 168, partner 5 µg/mL | 0.697 | 0.667 | – | 0.623 | – | –
S. aureus DSM 20231, partner 1.25 µg/mL | – | – | 0.983 | – | 0.985 | 0.962
S. aureus DSM 20231, partner 2.5 µg/mL | – | – | 0.884 | – | 0.875 | 0.865
S. aureus DSM 20231, partner 5 µg/mL | – | – | 0.826 | – | 0.855 | 0.777
S. aureus Newman, partner 1.25 µg/mL | – | – | 0.85 | – | 0.856 | 0.868
S. aureus Newman, partner 2.5 µg/mL | – | – | 0.8 | – | 0.764 | 0.826
S. aureus Newman, partner 5 µg/mL | – | – | 0.457 | – | 0.378 | 0.42

N[C@@H]1CONC1=O [Cycloserine D] + CN(N=O)C(=O)N[C@@H](C=O)[C@@H](O)[C@H](O)[C@H](O)CO [Streptozotocin]
fitness
Conditions | first compound 0.125 µg/mL | first compound 0.25 µg/mL | first compound 0.375 µg/mL | first compound 0.5 µg/mL | first compound 0.75 µg/mL | first compound 1.5 µg/mL
B. subtilis 168, partner 0.15 µg/mL | 0.991 | 0.979 | – | 0.975 | – | –
B. subtilis 168, partner 0.3 µg/mL | 0.963 | 0.98 | – | 0.931 | – | –
B. subtilis 168, partner 0.6 µg/mL | 0.984 | 0.988 | – | 0.958 | – | –
S. aureus DSM 20231, partner 0.15 µg/mL | – | – | 0.822 | – | 0.823 | 0.788
S. aureus DSM 20231, partner 0.3 µg/mL | – | – | 0.867 | – | 0.846 | 0.806
S. aureus DSM 20231, partner 0.6 µg/mL | – | – | 0.609 | – | 0.649 | 0.655
S. aureus Newman, partner 0.15 µg/mL | – | – | 0.833 | – | 0.762 | 0.741
S. aureus Newman, partner 0.3 µg/mL | – | – | 0.665 | – | 0.674 | 0.674
S. aureus Newman, partner 0.6 µg/mL | – | – | 0.607 | – | 0.512 | 0.584

N[C@@H]1CONC1=O [Cycloserine D] + CN[C@@H]1[C@H](O)[C@H](NC)[C@H]2O[C@@]3(O)C(=O)C[C@@H](C)O[C@H]3O[C@@H]2[C@H]1O [Spectinomycin]
fitness
Conditions | first compound 0.125 µg/mL | first compound 0.25 µg/mL | first compound 0.375 µg/mL | first compound 0.5 µg/mL | first compound 0.75 µg/mL | first compound 1.5 µg/mL
B. subtilis 168, partner 2 µg/mL | ≥ 1 | 0.985 | – | 0.992 | – | –
B. subtilis 168, partner 4 µg/mL | 0.947 | 0.934 | – | 0.957 | – | –
B. subtilis 168, partner 8 µg/mL | 0.906 | 0.924 | – | 0.879 | – | –
S. aureus DSM 20231, partner 4 µg/mL | – | – | 0.977 | – | 0.971 | 0.969
S. aureus DSM 20231, partner 8 µg/mL | – | – | 0.944 | – | 0.981 | 0.932
S. aureus DSM 20231, partner 16 µg/mL | – | – | 0.842 | – | 0.877 | 0.882
S. aureus Newman, partner 4 µg/mL | – | – | 0.96 | – | 0.924 | 0.908
S. aureus Newman, partner 8 µg/mL | – | – | ≥ 1 | – | 0.94 | 0.917
S. aureus Newman, partner 16 µg/mL | – | – | 0.941 | – | 0.894 | 0.875

fitness, one replicate
Conditions | first compound 0.375 µg/mL | first compound 0.75 µg/mL | first compound 1.5 µg/mL
S. aureus DSM 20231, partner 32 µg/mL | 0.726 | 0.786 | 0.736
S. aureus DSM 20231, partner 64 µg/mL | 0.0858 | 0.0864 | 0.0563
S. aureus Newman, partner 32 µg/mL | 0.575 | 0.596 | 0.501
S. aureus Newman, partner 64 µg/mL | 0.0802 | 0.0265 | 0.0316

N[C@@H]1CONC1=O [Cycloserine D] + CN[C@H](CC(C)C)C(=O)N[C@H]1C(=O)N[C@@H](CC(N)=O)C(=O)N[C@H]2C(=O)N[C@H]3C(=O)N[C@H](C(=O)N[C@H](C(=O)O)c4cc(O)cc(O)c4-c4cc3ccc4O)[C@H](O)c3ccc(c(Cl)c3)Oc3cc2cc(c3O[C@@H]2O[C@H](CO)[C@@H](O)[C@H](O)[C@H]2O[C@H]2C[C@](C)(N)[C@H](O)[C@H](C)O2)Oc2ccc(cc2Cl)[C@H]1O [Vancomycin]
fitness
Conditions | first compound 0.375 µg/mL | first compound 0.75 µg/mL | first compound 1.5 µg/mL
S. aureus DSM 20231, partner 0.1875 µg/mL | ≥ 1 | 0.973 | ≥ 1
S. aureus DSM 20231, partner 0.375 µg/mL | ≥ 1 | ≥ 1 | 0.957
S. aureus DSM 20231, partner 0.75 µg/mL | ≥ 1 | ≥ 1 | ≥ 1
S. aureus Newman, partner 0.1875 µg/mL | ≥ 1 | 0.995 | 0.983
S. aureus Newman, partner 0.375 µg/mL | ≥ 1 | ≥ 1 | ≥ 1
S. aureus Newman, partner 0.75 µg/mL | ≥ 1 | 0.975 | 0.967

N[C@@H]1CONC1=O [Cycloserine D] + CO/N=C(\C(=O)N[C@@H]1C(=O)N2C(C(=O)[O-])=C(C[N+]3(C)CCCC3)CS[C@H]12)c1csc(N)n1 [Cefepime]
fitness
Conditions | first compound 0.375 µg/mL | first compound 0.75 µg/mL | first compound 1.5 µg/mL
S. aureus DSM 20231, partner 0.125 µg/mL | 0.907 | 0.936 | 0.99
S. aureus DSM 20231, partner 0.25 µg/mL | 0.92 | 0.97 | 0.952
S. aureus DSM 20231, partner 0.5 µg/mL | 0.853 | 0.884 | 0.862
S. aureus Newman, partner 0.125 µg/mL | 0.894 | 0.925 | 0.89
S. aureus Newman, partner 0.25 µg/mL | 0.808 | 0.854 | 0.852
S. aureus Newman, partner 0.5 µg/mL | 0.782 | 0.801 | 0.779

N[C@@H]1CONC1=O [Cycloserine D] + CO[C@@]12[C@H](COC(N)=O)C3=C(C(=O)C(C)=C(N)C3=O)N1C[C@@H]1N[C@@H]12 [Mitomycin C]
fitness
Conditions | first compound 0.375 µg/mL | first compound 0.75 µg/mL | first compound 1.5 µg/mL
S. aureus DSM 20231, partner 0.0156 µg/mL | 0.746 | 0.739 | 0.71
S. aureus DSM 20231, partner 0.0312 µg/mL | 0.716 | 0.716 | 0.711
S. aureus DSM 20231, partner 0.0625 µg/mL | 0.528 | 0.542 | 0.513
S. aureus Newman, partner 0.0156 µg/mL | 0.682 | 0.71 | 0.732
S. aureus Newman, partner 0.0312 µg/mL | 0.656 | 0.651 | 0.693
S. aureus Newman, partner 0.0625 µg/mL | 0.567 | 0.5 | 0.555
